Laboratory results as given in patent US6352718B1, “Vasopressin antagonist formulation and process” (American Cyanamid Company, priority 1999, dated 2002).

Assay: Solubility in orally acceptable oils and aqueous systems
Type: physicochemical
Conditions: in conventional, orally acceptable oils, such as safflower or sesame seed oils, and in aqueous systems

Cc1ccc(F)cc1C(=O)Nc1ccc(C(=O)N2Cc3cccn3Cc3ccccc32)c(Cl)c1 [VPA-985, N-[4-(5H-pyrrolo[2,1-c][1,4]benzodiazepin-10(11H)ylcarbonyl)-3-chlorophenyl]-5-fluoro-2-methylbenzamide]
solubility: highly insoluble
